Results as given in patent US8158792B2, “Spiropiperidines for use as tryptase inhibitors” (Janssen Pharmaceutica N.V., priority 2007, dated 2012).

Each compound was assayed against human lung tryptase (assay: β-Tryptase In-Vitro Enzyme Assay). Settings: human lung tryptase 1 nM, substrate H-D-HHT-Ala-Arg-pNa 500 μM, pH 7.4, room temperature.
Format: biochemical
Method: The β-tryptase assay was conducted with human lung tryptase (Cortex Biochem #CP3033) in an aqueous buffer (10 mM Tris, 10 mM Hepes, 150 mM NaCl, 0.1% PEG 8000, pH 7.4) using the chromogenic substrate H-D-HHT-Ala-Arg-pNa. […] Percent inhibition was calculated by comparing the initial reaction velocity of samples without inhibitor to those with inhibitor. The initial reaction velocities were analyzed using Microsoft Excel.

SMILES	IC50 [nM]
NCc1ccc2c(c1)C1(CCN(C(=O)c3ccc(-c4ccc(Cl)cc4)o3)CC1)CO2 [Cpd 12, 1-[5-(4-chloro-phenyl)-furan-2-yl]carbonyl-5′-aminomethyl-spiro[piperidine-4,3′-(2H)-benzo[b]furan]]	66
CS(=O)(=O)CS(=O)(=O)N1CC2(CCN(C(=O)c3ccc(C#Cc4ccccc4)o3)CC2)c2cc(CN)ccc21 [Cpd 348, 1-(5-phenylethynyl-furan-2-yl)carbonyl-1′-(methylsulfonylmethyl)sulfonyl-5′-aminomethyl-spiro[piperidine-4,3′-(2H)-indole]]	24
NCc1ccc2c(c1)C1(CCN(C(=O)/C=C/c3ccc(Cl)cc3)CC1)CO2 [Cpd 165, (E)-1-(4-chloro-phenylethenyl)carbonyl-5′-aminomethyl-spiro[piperidine-4,3′-(2H)-benzo[b]furan]]	380
NCc1ccc2c(c1)C1(CCN(C(=O)C3=CCc4ccccc43)CC1)CO2 [Cpd 286, 1-3H-inden-1-ylcarbonyl-5′-aminomethyl-spiro[piperidine-4,3′-(2H)-benzo[b]furan]]	920
CCCOc1sc(C(=O)N2CCC3(CC2)COc2ccc(CN)cc23)c(C)c1Br [Cpd 303, 1-(3-methyl-4-bromo-5-propoxy-thien-2-yl)carbonyl-5′-aminomethyl-spiro[piperidine-4,3′-(2H)-benzo[b]furan]]	3.7
NCc1ccc2c(c1)C1(CCN(C(=O)c3ccc(S(N)(=O)=O)cc3)CC1)CO2 [Cpd 11, 1-(4-aminosulfonyl-phenyl)carbonyl-5′-aminomethyl-spiro[piperidine-4,3′-(2H)-benzo[b]furan]]	4700
NCc1ccc2c(c1)C1(CCN(C(=O)c3ccc(C#Cc4ccccc4)o3)CC1)CN2C(=O)c1nnn[nH]1 [Cpd 334, 1-(5-phenylethynyl-furan-2-yl)carbonyl-1′-(1H-tetrazol-5-yl)carbonyl-5′-aminomethyl-spiro[piperidine-4,3′-(2H)-indole]]	47
Cc1cc(C(=O)N2CCC3(CC2)COc2ccc(CN)cc23)sc1C(O)O [Cpd 256, 1-(5-dihydroxymethyl-4-methyl-thien-2-yl)carbonyl-5′-aminomethyl-spiro[piperidine-4,3′-(2H)-benzo[b]furan]]	820
COc1ccc(-c2c(C(=O)N3CCC4(CC3)COc3ccc(CN)cc34)sc(SC)c2C#N)cc1 [Cpd 201, 1-[3-(4-methoxy-phenyl)-4-cyano-5-methylthio-thien-2-yl]carbonyl-5′-aminomethyl-spiro[piperidine-4,3′-(2H)-benzo[b]furan]]	45
NCc1ccc2c(c1)C1(CCN(C(=O)/C(=C/c3ccccc3)c3ccccc3)CC1)CO2 [Cpd 190, (E)-1-(1-phenyl-2-phenylethenyl)carbonyl-5′-aminomethyl-spiro[piperidine-4,3′-(2H)-benzo[b]furan]]	590
NCc1ccc2c(c1)C1(CCN(C(=O)C(c3ccccc3)c3ccccc3)CC1)CO2 [Cpd 290, 1-(1-oxo-2,2-diphenyl-ethyl)-5′-aminomethyl-spiro[piperidine-4,3′-(2H)-benzo[b]furan]]	160
NCc1ccc2c(c1)C1(CCN(C(=O)c3ccc(-c4cc(C(F)(F)F)ccc4Cl)o3)CC1)CO2 [Cpd 129, 1-[5-(2-chloro-5-trifluoromethyl-phenyl)-furan-2-yl]carbonyl-5′-aminomethyl-spiro[piperidine-4,3′-(2H)-benzo[b]furan]]	99
Cc1nc(-c2ccc(C(=O)N3CCC4(CC3)COc3ccc(CN)cc34)s2)cs1 [Cpd 206, 1-[5-(2-methyl-thiazol-4-yl)-thien-2-yl]carbonyl-5′-aminomethyl-spiro[piperidine-4,3′-(2H)-benzo[b]furan]]	260
COc1ccc(CN2C(=O)c3ccc(CN)cc3C23CCN(C(=O)c2ccc(C#Cc4ccccc4)o2)CC3)c(OC)c1 [Cpd 316, 1-(5-phenylethynyl-furan-2-yl)carbonyl-1′-oxo-2′-(2,4-dimethoxy-benzyl)-5′-aminomethyl-spiro[piperidine-4,3′-1H-isoindole]]	74
